Common to all, as to assay type: functional, cell-based
One experiment has as its system HT-29. The experiment can be described thus: Cytotoxicity was measured against neoplastic cultured HT-29 cells of human colon carcinoma.
Another experiment concerns P388. The experiment can be described thus: Cytotoxicity was measured against neoplastic cultured P-388 cells of murine leukemia. Particulars: Mus musculus.
Another experiment relates to SK-MEL-28. The experiment is described as follows: Cytotoxicity was measured against neoplastic cultured MEL-28 cells of malign human melanoma.
A further experiment has as its system A549. The experiment can be described thus: Cytotoxicity was measured against neoplastic cultured A-549 cells of human lung carcinoma.

pIC50: −log10 of the molar value.

A word on the pIC50: it is the IC50 on a negative log10 scale, so that one unit is a factor of ten. A low value points to a high IC50. `CC(C)=CCCC1=CCC2C(=O)c3ccccc3C(=O)C2C1` (stereo not given): the negative-log IC50 (pIC50) in the experiment with HT-29 was < 4.47; in the experiment on P388, 5.07; with SK-MEL-28, < 4.47; with A549, 5.07.

On to `CC(C)=CCCC1=CCC2=C(C1)C(=O)c1ccccc1C2=O`, for which the pIC50 was < 4.47 in the experiment with HT-29, 4.77 in the experiment with P388, < 4.47 in the experiment on SK-MEL-28 and 4.77 in the experiment on A549.

`CC(=O)Oc1cc(C)c(OC(C)=O)c2c1CC=C(CCC=C(C)C)C2`: the negative-log IC50 (pIC50) is 4.84 with HT-29, 5.54 in the experiment on P388, 4.84 with SK-MEL-28 and 5.54 with A549.

As for `CC(C)=CCCC1=CCC2=C(C1)C(=O)C(C)=CC2=O`, the pIC50 is 4.71 in the experiment on HT-29, 5.41 with P388, 5.01 with SK-MEL-28 and 5.41 with A549.

For `CC(C)=CCCC1=CCC2=C(C1)C(=O)C=CC2=O`, the pIC50 in the experiment with HT-29 is 5.68; in the experiment on P388, 6.00; with SK-MEL-28, 5.68; with A549, 5.68.

As to `CC(=O)Oc1cc(C)c(OC(C)=O)c2cc(CCC=C(C)C)ccc12`, the pIC50 with HT-29 is 5.14; with P388 it was 5.54; in the experiment with SK-MEL-28, 5.46; with A549, 5.82.

For `CC(C)=CCCc1ccc2c(c1)C(=O)C(C)=CC2=O`, the pIC50 in the experiment with HT-29 was 4.71; with P388, 5.41; in the experiment with SK-MEL-28 it was 5.01; with A549, 5.41.

Take `CC(C)=CCCc1ccc2c(c1)C(=O)C=CC2=O`: the negative-log IC50 (pIC50) in the experiment on HT-29 was 6.00; in the experiment on P388, 6.40; with SK-MEL-28 it was 6.40; in the experiment with A549, 6.00.

Regarding `CC(=O)Oc1ccc(OC(C)=O)c2c1CC=C(CCC=C(C)C)C2`, the pIC50 in the experiment with HT-29 is 5.44; in the experiment on P388, 5.82; in the experiment with SK-MEL-28 it was 5.44; in the experiment with A549 it was 5.44.

On to `CC(C)=CCCC1=CCc2c(O)cc(C)c(O)c2C1`, for which the negative logarithm of the IC50 (pIC50) was 4.71 in the experiment with HT-29, 5.42 in the experiment on P388, 4.71 with SK-MEL-28 and 5.42 in the experiment with A549.

With `CC(C)=CCCC1=CCc2c(O)ccc(O)c2C1`, the negative-log IC50 (pIC50) in the experiment with HT-29 was 5.31; with P388, 5.68; with SK-MEL-28, 5.31; in the experiment with A549, 5.31.

As for `CC1=CCC[C@H]2[C@](C)(Cc3cc(O)ccc3O)[C@@H](C)CC[C@]12C` [AVAROL], the pIC50 in the experiment on HT-29 was 5.22; in the experiment with P388, 5.51; with SK-MEL-28, 5.22; with A549, 5.22.

Take `CC1=CCC[C@H]2[C@](C)(CC3=CC(=O)C=CC3=O)[C@@H](C)CC[C@]12C` [AVARONE]: the pIC50 in the experiment on HT-29 was 5.22; in the experiment with P388 it was 5.51; in the experiment on SK-MEL-28, 5.22; with A549, 5.22.

For the molecule `O=C1C=CC(=O)C=C1` [BENZOQUINONE], the pIC50 in the experiment with HT-29 is 4.34; with P388, 4.95; in the experiment with SK-MEL-28, 4.34; in the experiment with A549, 4.34.

For the molecule `O=C1C=CC(=O)c2ccccc21` [NAPHTHOQUINONE], the negative-log IC50 (pIC50) in the experiment with HT-29, in the experiment with P388, in the experiment on SK-MEL-28 and in the experiment on A549 was < 4.20 throughout.

Source of the values: ChEMBL document CHEMBL1151602, “Synthesis and bioactivity of new antineoplastic terpenylquinones” (Bioorg Med Chem Lett, 1996).
